Among the data in the NIST ThermoML archive (doi:10.1021/je101031j) are mass density, refractive index and excess molar enthalpy values, retold here.

Numbers after ± are expanded uncertainties.

The conditions of data set [1]: 298.15 K; 101.33 kPa; Liquid; Vibrating tube method.
Data set [2] is described as follows: refractive index (Na D-line) (dimensionless). The settings on record: 298.15 K; 101.33 kPa; Liquid; Standard Abbe refractometry.
Data set [3] in a line: excess molar enthalpy (molar enthalpy of mixing); xn = mol fraction of the nth substance listed. Conditions: 298.15 K, 101.3 kPa, Liquid, Calvet calorimetry.

On to `CO` [methanol], for which, in data set [1], the mass density is reported as 786.42 ± 0.31 kg/m3. The refractive index in data set [2] stood at 1.3264 ± 0.0005.

`CCCCCO` [pentan-1-ol]: in data set [1], the mass density was determined as 810.82 ± 0.31 kg/m3. Further, the refractive index in data set [2] is 1.4086 ± 0.0005.

As to `CCC(C)(C)O` [2-methylbutan-2-ol], the mass density in data set [1] came to 804.8 ± 0.31 kg/m3. For the same compound, the refractive index in data set [2] was 1.4019 ± 0.0005.

Turning to `CCO` [ethanol], the mass density in data set [1] turned out to be 785.22 ± 0.31 kg/m3. Also, the refractive index in data set [2] is recorded as 1.3591 ± 0.0005.

`CCC(C)(C)O` [2-methylbutan-2-ol] + CCO: the excess molar enthalpy was -0.0594 ± 0.000645 kcal/mol in data set [3] (x1 = 0.0898); -0.1128 ± 0.00105 kcal/mol in data set [3] (x1 = 0.1796); -0.1686 ± 0.00148 kcal/mol in data set [3] (x1 = 0.2807); -0.2039 ± 0.00177 kcal/mol in data set [3] (x1 = 0.3707); -0.2271 ± 0.00194 kcal/mol in data set [3] (x1 = 0.4607); -0.2326 ± 0.00198 kcal/mol in data set [3] (x1 = 0.5507). For the same compound, the excess molar enthalpy in data set [3] (x1 = 0.6406) is -0.2178 ± 0.00186 kcal/mol; in data set [3] (x1 = 0.7306), -0.1842 ± 0.0016 kcal/mol; in data set [3] (x1 = 0.8205), -0.1302 ± 0.0012 kcal/mol; in data set [3] (x1 = 0.9103), -0.0648 ± 0.000693 kcal/mol.

As to `CCC(C)(C)O` [2-methylbutan-2-ol] + CO, the excess molar enthalpy was -0.0613 ± 0.000669 kcal/mol in data set [3] (x1 = 0.0908); -0.1248 ± 0.00115 kcal/mol in data set [3] (x1 = 0.1814); -0.1921 ± 0.00167 kcal/mol in data set [3] (x1 = 0.2731); -0.2497 ± 0.00213 kcal/mol in data set [3] (x1 = 0.3644); -0.2868 ± 0.00239 kcal/mol in data set [3] (x1 = 0.4608); -0.3031 ± 0.00263 kcal/mol in data set [3] (x1 = 0.5513). The excess molar enthalpy in data set [3] (x1 = 0.6416) was -0.2905 ± 0.00239 kcal/mol; in data set [3] (x1 = 0.7319), -0.2556 ± 0.00217 kcal/mol; in data set [3] (x1 = 0.8195), -0.1911 ± 0.00167 kcal/mol; in data set [3] (x1 = 0.9101) it was -0.1008 ± 0.000956 kcal/mol.

As to `CCCCO` [butan-1-ol], in data set [1], the mass density was found to be 805.61 ± 0.31 kg/m3. In addition, the refractive index in data set [2] is given as 1.3973 ± 0.0005.

As for `CCCO` [propan-1-ol], the mass density in data set [1] was 799.46 ± 0.31 kg/m3. Besides, the refractive index in data set [2] is recorded as 1.383 ± 0.0005.

As to `CCC(C)(C)O` [2-methylbutan-2-ol] + CCCCCO, the excess molar enthalpy in data set [3] (x1 = 0.0899) was -0.0499 ± 0.000574 kcal/mol; in data set [3] (x1 = 0.18), -0.09866 ± 0.000956 kcal/mol; in data set [3] (x1 = 0.27), -0.1359 ± 0.00124 kcal/mol; in data set [3] (x1 = 0.3664), -0.1551 ± 0.00139 kcal/mol; in data set [3] (x1 = 0.4566), -0.1636 ± 0.00146 kcal/mol; in data set [3] (x1 = 0.5468), -0.1618 ± 0.00143 kcal/mol. Moreover, the excess molar enthalpy in data set [3] (x1 = 0.6372) was -0.1515 ± 0.00136 kcal/mol; in data set [3] (x1 = 0.7278) it was -0.1268 ± 0.00117 kcal/mol; in data set [3] (x1 = 0.8185) it was -0.09235 ± 0.000908 kcal/mol; in data set [3] (x1 = 0.9091), -0.0493 ± 0.000574 kcal/mol.

On to `CCC(C)(C)O` [2-methylbutan-2-ol] + CCCCO, for which the excess molar enthalpy in data set [3] (x1 = 0.09) was -0.064 ± 0.000669 kcal/mol; in data set [3] (x1 = 0.1801), -0.1142 ± 0.00108 kcal/mol; in data set [3] (x1 = 0.2702), -0.1553 ± 0.00139 kcal/mol; in data set [3] (x1 = 0.3707), -0.1793 ± 0.00158 kcal/mol; in data set [3] (x1 = 0.4609), -0.1912 ± 0.00167 kcal/mol; in data set [3] (x1 = 0.551), -0.1882 ± 0.00165 kcal/mol. Besides, the excess molar enthalpy in data set [3] (x1 = 0.6412) is -0.1746 ± 0.00153 kcal/mol; in data set [3] (x1 = 0.7313), -0.145 ± 0.00131 kcal/mol; in data set [3] (x1 = 0.8198) it was -0.102 ± 0.00098 kcal/mol; in data set [3] (x1 = 0.9099), -0.0509 ± 0.000574 kcal/mol.

Turning to `CCC(C)(C)O` [2-methylbutan-2-ol] + CCCO, the excess molar enthalpy in data set [3] (x1 = 0.09) was -0.0608 ± 0.000645 kcal/mol; in data set [3] (x1 = 0.1801), -0.1096 ± 0.00103 kcal/mol; in data set [3] (x1 = 0.2802), -0.1568 ± 0.00141 kcal/mol; in data set [3] (x1 = 0.3701), -0.1879 ± 0.00165 kcal/mol; in data set [3] (x1 = 0.4599), -0.2053 ± 0.00177 kcal/mol; in data set [3] (x1 = 0.5497), -0.2041 ± 0.00177 kcal/mol. Further, the excess molar enthalpy in data set [3] (x1 = 0.6395) is -0.1921 ± 0.00167 kcal/mol; in data set [3] (x1 = 0.7292), -0.1605 ± 0.00143 kcal/mol; in data set [3] (x1 = 0.8189), -0.1131 ± 0.00105 kcal/mol; in data set [3] (x1 = 0.9088), -0.0556 ± 0.000621 kcal/mol.

By mass density is commonly meant the mass of a sample divided by its volume. As a reminder, the refractive index is the speed of light in vacuum divided by its phase velocity in the sample.
